Data on two molecules can be found in patent US20230146870A1, “METHOD TO QUANTIFY AFFINITY AND SELECTIVITY OF SMALL MOLECULES FOR PROTEINS IN LIVING CELLS” (Ohio State Innovation Foundation, priority 2021, published 2023).

Several values for one entry are separate records, joined by “and”; a condition that tells them apart may be missing. Equal entries are not always repeated. Where two headings read alike, the source gives them in different places.

In data set [1] the target is T1, native (untagged) murine PKCβI (Mus musculus, UniProt P68404).
T1 construct: For coexpression of full-length unmodified PKC proteins with mVenus as an independent marker; expressed in transfected cells; host or cells: HEK293 (transient, pIRES-mVenus)
T1 sequence (P68404 2-673 isoform P68404-2): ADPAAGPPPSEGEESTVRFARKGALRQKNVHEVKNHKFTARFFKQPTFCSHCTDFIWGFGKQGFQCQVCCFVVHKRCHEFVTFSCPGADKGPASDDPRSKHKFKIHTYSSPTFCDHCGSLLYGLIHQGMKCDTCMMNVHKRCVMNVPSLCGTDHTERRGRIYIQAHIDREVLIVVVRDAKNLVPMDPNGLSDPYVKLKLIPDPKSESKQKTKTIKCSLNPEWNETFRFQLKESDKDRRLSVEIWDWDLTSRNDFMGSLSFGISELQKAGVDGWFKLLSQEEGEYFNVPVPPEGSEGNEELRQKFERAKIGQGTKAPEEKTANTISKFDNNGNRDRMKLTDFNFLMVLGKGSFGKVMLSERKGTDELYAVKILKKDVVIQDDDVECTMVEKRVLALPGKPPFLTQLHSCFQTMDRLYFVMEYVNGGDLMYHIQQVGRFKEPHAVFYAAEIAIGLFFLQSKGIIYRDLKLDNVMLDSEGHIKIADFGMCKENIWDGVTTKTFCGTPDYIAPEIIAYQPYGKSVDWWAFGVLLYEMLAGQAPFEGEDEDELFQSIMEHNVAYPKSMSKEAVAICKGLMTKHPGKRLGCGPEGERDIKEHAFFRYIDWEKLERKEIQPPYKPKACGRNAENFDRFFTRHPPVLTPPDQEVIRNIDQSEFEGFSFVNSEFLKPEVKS
As to the kind of experiment: FPCBA competition with probe 1, native PKCβI in HEK293 cells. It counts as binding. The following applies: read-out: Cellular Ki for native PKCβI (95% confidence interval).

In data set [2] the target is native (untagged) murine PKCθ (Mus musculus, UniProt Q02111). As to the kind of experiment: FPCBA competition with probe 1, native PKCθ in HEK293 cells. It counts as binding. Also on record: expressed in transfected cells; host or cells: HEK293 (ATCC CRL-1573), transient transfection with pIRES-mVenus carrying the PKC gene. The following applies: read-out: Cellular Ki for native PKCθ (95% confidence interval).

For data set [3], the target named is T2, native (untagged) murine PKCε (Mus musculus, UniProt P16054).
T2 sequence (P16054 1-737): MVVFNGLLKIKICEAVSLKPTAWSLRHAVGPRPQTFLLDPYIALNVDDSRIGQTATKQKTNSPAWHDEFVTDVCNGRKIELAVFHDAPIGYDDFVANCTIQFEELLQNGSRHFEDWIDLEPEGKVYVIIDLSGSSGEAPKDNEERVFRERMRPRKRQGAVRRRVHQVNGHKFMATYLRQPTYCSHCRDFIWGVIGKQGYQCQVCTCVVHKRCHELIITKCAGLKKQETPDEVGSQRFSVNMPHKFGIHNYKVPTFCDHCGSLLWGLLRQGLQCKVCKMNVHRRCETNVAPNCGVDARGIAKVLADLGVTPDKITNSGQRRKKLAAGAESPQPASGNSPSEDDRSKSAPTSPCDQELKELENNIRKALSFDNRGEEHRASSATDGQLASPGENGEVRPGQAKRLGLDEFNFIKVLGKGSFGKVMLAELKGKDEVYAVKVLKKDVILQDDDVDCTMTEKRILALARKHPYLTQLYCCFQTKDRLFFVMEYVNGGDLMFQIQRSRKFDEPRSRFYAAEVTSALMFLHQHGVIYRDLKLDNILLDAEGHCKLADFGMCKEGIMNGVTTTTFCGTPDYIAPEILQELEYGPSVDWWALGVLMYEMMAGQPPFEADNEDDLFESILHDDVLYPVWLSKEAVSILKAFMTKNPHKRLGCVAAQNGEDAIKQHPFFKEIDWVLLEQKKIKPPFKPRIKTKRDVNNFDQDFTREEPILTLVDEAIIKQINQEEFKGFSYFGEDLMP
As to the kind of experiment: FPCBA competition with probe 1, native PKCε in HEK293 cells. It counts as binding. Further details: For coexpression of full-length unmodified PKC proteins with mVenus as an independent marker; expressed in transfected cells; host or cells: HEK293 (transient, pIRES-mVenus). The following applies: read-out: Cellular Ki for native PKCε (95% confidence interval).

The target in data set [4] is T3, native (untagged) murine PKCδ (Mus musculus, UniProt P28867).
T3 construct: For coexpression of full-length unmodified PKC proteins with mVenus as an independent marker; expressed in transfected cells; host or cells: HEK293 (transient, pIRES-mVenus)
T3 sequence (P28867 whole entry): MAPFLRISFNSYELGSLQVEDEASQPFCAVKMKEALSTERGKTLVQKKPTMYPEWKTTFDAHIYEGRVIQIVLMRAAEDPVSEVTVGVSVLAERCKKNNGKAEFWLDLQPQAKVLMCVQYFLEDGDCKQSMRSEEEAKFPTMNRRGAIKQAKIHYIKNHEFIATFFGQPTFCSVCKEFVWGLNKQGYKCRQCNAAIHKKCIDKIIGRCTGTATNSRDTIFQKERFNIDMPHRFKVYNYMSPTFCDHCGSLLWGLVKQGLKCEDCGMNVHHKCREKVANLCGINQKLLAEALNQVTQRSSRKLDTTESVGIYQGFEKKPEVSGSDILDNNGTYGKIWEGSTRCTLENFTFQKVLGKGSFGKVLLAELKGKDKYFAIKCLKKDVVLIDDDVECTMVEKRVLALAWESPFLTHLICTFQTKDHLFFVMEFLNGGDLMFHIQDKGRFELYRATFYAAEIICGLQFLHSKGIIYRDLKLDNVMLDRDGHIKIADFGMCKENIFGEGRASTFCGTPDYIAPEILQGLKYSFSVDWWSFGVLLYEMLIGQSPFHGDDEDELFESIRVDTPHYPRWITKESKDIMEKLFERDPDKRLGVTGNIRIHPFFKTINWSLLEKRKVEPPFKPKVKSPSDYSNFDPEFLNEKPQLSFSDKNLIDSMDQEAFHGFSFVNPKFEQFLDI
As to the kind of experiment: FPCBA competition with probe 1, native PKCδ in HEK293 cells. It counts as binding. The following applies: read-out: Cellular Ki for native PKCδ (95% confidence interval).

Data set [5] deals with T4, native (untagged) murine PKCζ (Mus musculus, UniProt Q02956).
T4 sequence (Q02956 1-592): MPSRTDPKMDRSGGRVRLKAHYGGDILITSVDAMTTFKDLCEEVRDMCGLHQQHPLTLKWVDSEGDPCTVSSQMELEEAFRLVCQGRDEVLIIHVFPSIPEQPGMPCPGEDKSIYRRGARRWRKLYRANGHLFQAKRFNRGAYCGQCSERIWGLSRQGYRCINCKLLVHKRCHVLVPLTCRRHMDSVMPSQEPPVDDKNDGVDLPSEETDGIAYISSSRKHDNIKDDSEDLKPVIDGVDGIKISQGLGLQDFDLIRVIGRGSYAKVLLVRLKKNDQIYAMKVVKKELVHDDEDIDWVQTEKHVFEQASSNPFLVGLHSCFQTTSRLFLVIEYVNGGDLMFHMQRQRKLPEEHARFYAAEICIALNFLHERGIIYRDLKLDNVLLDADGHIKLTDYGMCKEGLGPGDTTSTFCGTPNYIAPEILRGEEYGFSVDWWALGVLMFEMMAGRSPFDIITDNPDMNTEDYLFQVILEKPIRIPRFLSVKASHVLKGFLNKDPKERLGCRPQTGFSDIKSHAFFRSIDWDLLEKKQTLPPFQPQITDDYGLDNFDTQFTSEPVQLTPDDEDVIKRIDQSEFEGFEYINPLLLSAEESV
In words: FPCBA competition with probe 1, native PKCζ in HEK293 cells. Also on record: expressed in transfected cells; host or cells: HEK293 (ATCC CRL-1573), transient transfection with pIRES-mVenus carrying the PKC gene. It counts as binding.

The next data set concerns the target PKC proteins. The following applies: cited from earlier work.
Data set [6] deals with native (untagged) murine PKCη (Mus musculus, UniProt P23298). In words: FPCBA competition with probe 1, native PKCη in HEK293 cells. It counts as binding. Also on record: expressed in transfected cells; host or cells: HEK293 (ATCC CRL-1573), transient transfection with pIRES-mVenus carrying the PKC gene. The following applies: read-out: Cellular Ki for native PKCη (95% confidence interval).
Chain of native (untagged) murine PKCη (P23298 whole entry): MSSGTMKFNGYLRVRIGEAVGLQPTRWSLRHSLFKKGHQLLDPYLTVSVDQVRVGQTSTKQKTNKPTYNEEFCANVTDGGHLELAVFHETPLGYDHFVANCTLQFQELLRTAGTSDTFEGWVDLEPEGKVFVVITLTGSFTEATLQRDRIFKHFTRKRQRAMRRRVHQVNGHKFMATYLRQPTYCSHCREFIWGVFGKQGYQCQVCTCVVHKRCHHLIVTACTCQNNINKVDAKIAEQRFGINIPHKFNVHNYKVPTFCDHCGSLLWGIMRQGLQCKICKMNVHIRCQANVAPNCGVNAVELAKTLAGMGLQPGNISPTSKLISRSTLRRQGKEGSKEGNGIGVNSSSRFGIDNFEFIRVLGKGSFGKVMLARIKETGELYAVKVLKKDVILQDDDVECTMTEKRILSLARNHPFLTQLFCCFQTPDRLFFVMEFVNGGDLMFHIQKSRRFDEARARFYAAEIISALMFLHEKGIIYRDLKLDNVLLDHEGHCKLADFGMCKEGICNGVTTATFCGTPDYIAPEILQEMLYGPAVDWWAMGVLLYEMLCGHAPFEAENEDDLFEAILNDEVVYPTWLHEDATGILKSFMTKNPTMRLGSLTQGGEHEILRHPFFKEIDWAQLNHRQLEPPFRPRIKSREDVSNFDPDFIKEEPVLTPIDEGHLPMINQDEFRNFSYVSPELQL

In the next data set the test system is HEK293 cells. As to the kind of experiment: Cytotoxicity assay, HEK293 cells, 48 h, flow cytometry (Example 3). The following applies: concentrations of ≤10 μM. The protocol:
As a preliminary assessment of their ability to activate PKCs, we evaluated the cytotoxicity of 1-3 towards HEK293 and Jurkat cells.
Where noted, 2×BIM1 (4 μM) was included. These diluted solutions of compounds (100 μL) were added to each well of a 96-well plate containing cells in medium (100 μL) in triplicate. For Jurkat lymphocytes, cells were seeded in fresh complete RPMI medium (10% FBS, 1% Pen/Strep) at 4.5×10^5 cells/mL (2× stock, 100 μL per well, [DMSO]=0.2%). […] Cell culture media (100 μL) was carefully removed from each well followed by the addition of the diluted compound solutions (2×, 100 μL) in triplicate.

The next data set concerns the target PKCδ. The following applies: read-out: Biochemical Ki, PKCδ; cited from earlier work.
The test system of a further data set is Jurkat lymphocytes. In words: Cytotoxicity assay, Jurkat lymphocytes, 48 h, flow cytometry (Example 3). It counts as cell-based. The protocol:
[…]. Where noted, 2×BIM1 (4 μM) was included.

In data set [7] the target is native (untagged) murine PKCγ (Mus musculus, UniProt P63318). As to the kind of experiment: FPCBA competition with probe 1, native PKCγ in HEK293 cells. The class given is binding. Also on record: For coexpression of full-length unmodified PKC proteins with mVenus as an independent marker; expressed in transfected cells; host or cells: HEK293 (transient, pIRES-mVenus). The following applies: read-out: Cellular Ki for native PKCγ (95% confidence interval).

For another data set, the target named is T5, mouse PKCβI-mVenus (Mus musculus, UniProt P68404).
T5 construct: eight plasmids encoding full length mouse PKC isozymes fused to; expressed in transfected cells; host or cells: HEK293
T5 sequence (P68404 whole entry, the tested form may be a part): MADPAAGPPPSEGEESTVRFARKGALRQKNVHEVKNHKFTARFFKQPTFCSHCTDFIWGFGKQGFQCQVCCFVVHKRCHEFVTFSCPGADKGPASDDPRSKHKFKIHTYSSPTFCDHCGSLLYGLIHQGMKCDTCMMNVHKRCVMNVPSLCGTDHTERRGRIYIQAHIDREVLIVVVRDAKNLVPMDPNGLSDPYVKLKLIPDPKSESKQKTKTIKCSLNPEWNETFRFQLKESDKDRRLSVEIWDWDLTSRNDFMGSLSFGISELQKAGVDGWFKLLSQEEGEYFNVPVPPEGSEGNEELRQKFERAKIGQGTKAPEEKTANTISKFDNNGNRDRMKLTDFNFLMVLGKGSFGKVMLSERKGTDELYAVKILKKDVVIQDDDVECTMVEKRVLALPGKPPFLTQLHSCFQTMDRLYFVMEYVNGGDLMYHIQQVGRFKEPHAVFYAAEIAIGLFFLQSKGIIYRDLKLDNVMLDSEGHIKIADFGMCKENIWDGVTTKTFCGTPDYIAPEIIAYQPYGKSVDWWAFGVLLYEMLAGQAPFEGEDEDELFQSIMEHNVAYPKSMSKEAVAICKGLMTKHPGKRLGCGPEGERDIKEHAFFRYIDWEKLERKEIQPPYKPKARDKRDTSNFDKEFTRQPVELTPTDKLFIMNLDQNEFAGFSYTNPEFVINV
In words: Apparent cellular Kd by flow cytometry, HEK293 cells overexpressing PKCβI-mVenus (Example 2). The class given is binding. The procedure: The apparent Kd values of these fluorescent probes were measured using different PKC isozymes (e.g., PKCβI, FIGS. 20A-20D). HEK293 cells were transfected to overexpress PKCβ-mVenus and treated with probes in the presence of verapamil (100 μM) as an inhibitor of efflux.

For a further data set, the target named is T6, mouse PKCε-mVenus (Mus musculus, UniProt P16054).
T6 sequence (P16054 1-737): T2 sequence (P16054 1-737)
In words: Apparent cellular Kd by flow cytometry, HEK293 cells overexpressing PKCε-mVenus (Example 2).

The target in a further data set is mouse PKCα-mVenus (Mus musculus, UniProt P20444). In words: Apparent cellular Kd by flow cytometry, HEK293 cells overexpressing PKCα-mVenus (Example 2).
The next data set deals with mouse PKCθ-mVenus (Mus musculus, UniProt Q02111). In words: Apparent cellular Kd by flow cytometry, HEK293 cells overexpressing PKCθ-mVenus (Example 2).
In a further data set the target is mouse PKCδ-mVenus (Mus musculus, UniProt P28867). As to the kind of experiment: Apparent cellular Kd by flow cytometry, HEK293 cells overexpressing PKCδ-mVenus (Example 2).
Chain of mouse PKCδ-mVenus (P28867 whole entry): as the sequence (P28867 whole entry) above
The next data set concerns the target mouse PKCη-mVenus (Mus musculus, UniProt P23298). As to the kind of experiment: Apparent cellular Kd by flow cytometry, HEK293 cells overexpressing PKCη-mVenus (Example 2).
The target in another data set is mouse PKCγ-mVenus (Mus musculus, UniProt P63318). In words: Apparent cellular Kd by flow cytometry, HEK293 cells overexpressing PKCγ-mVenus (Example 2).

Chain of mouse PKCη-mVenus (P23298 whole entry): as the sequence (P23298 whole entry) above

Consider `CCCC(=O)O[C@@H]1[C@@H](C)[C@@]2(O)[C@@H](C=C(CO)C[C@]3(O)C(=O)C(C)=C[C@@H]23)[C@@H]2C(C)(C)[C@]12OC(=O)CCC` [PDBu, phorbol 12,13-dibutyrate], for which the inhibitory constant (Ki) was 14 nM in data set [1]; 50 nM in [2]; 55 nM in data set [3]; 32 nM and 50 nM in [4]; 14 nM in [6]; […] on PKCδ. For the same molecule, the Ki in [7] worked out at 44 nM. Also, the “Cellular Ki for native PKCζ” value in data set [5] is given as “No binding”. In addition, the figures for the Kd on PKC proteins (in the presence of phospholipids) and at PKC proteins (without phospholipids) were about 1 nM and about 160 nM, respectively. Moreover, in the data set on HEK293 cells, the “toxicity towards HEK293 cells” value is recorded as “non-toxic”. Besides, the “effect of BIM1 on cytotoxicity towards Jurkat lymphocytes” value in the data set on Jurkat lymphocytes (BIM1 2 μM) is “completely blocked”. Further, the half-inhibitory concentration (IC50) in the data set on Jurkat lymphocytes (read-out: cytotoxicity towards Jurkat lymphocytes, IC50) came out at 2 nM.
For the molecule `CCN(CCCCCCCCCCCCNC(=O)c1cc2cc(F)c(O)c(F)c2oc1=O)C(=O)O[C@@]12[C@H](O)[C@@H](C)[C@@]3(O)[C@@H](C=C(CO)C[C@]4(O)C(=O)C(C)=C[C@@H]34)[C@@H]1C2(C)C` [probe 47, (1aR,1bS,4aR,7aS,7bS,8R,9R,9aS)-4a,7b,9-trihydroxy-3-(hydroxymethyl)-1,1,6,8-tetramethyl-5-oxo-1,1a,1b,4,4a,5,7a,7b,8,9-decahydro-9aH-cyclopropa[3,4]benzo[1,2-e]azulen-9a-yl (12-(6,8-difluoro-7-hydroxy-2-oxo-2H-chromene-3-carboxamido)dodecyl)(ethyl)carbamate], the Kd at mouse PKCβI-mVenus stood at 900 nM; at mouse PKCε-mVenus it was 7900 nM; on mouse PKCα-mVenus, 1600 nM; at mouse PKCθ-mVenus, 13200 nM; at mouse PKCδ-mVenus it was 7800 nM; on mouse PKCη-mVenus, 8200 nM. For the same molecule, the Kd on mouse PKCγ-mVenus amounted to 2000 nM.
